Earlier results on one compound are cited in patent US11230722B2, “Nutritional supplements and therapeutic compositions comprising (r)-3-hydroxybutyrate derivatives” (Oxford University Innovation Limited, priority 2003, dated 2022).

For the data set, the system named is gastric enzymes.

For the compound `C[C@@H]1CC(=O)O[C@H](C)CC(=O)O[C@H](C)CC(=O)O1` [triolide, cyclic trimer of (R)-3-hydroxybutyrate], the absorption entry is “only poorly absorbed” and the “hydrolysis by gastric enzymes” value is listed as “not efficiently hydrolyzed”.
